Experimental data reported in patent US8703964B2, “Bendamustine cyclopolysaccharide compositions” (Supratek Pharma Inc., priority 2009, dated 2014).

What was measured:
[1] = Pharmacokinetics of bendamustine dosed to rats, composition with SBECD and protamine sulphate (Example 13); type: in vivo; details: female, Sprague-Dawley, rat, plasma, iv, i.v. 10 mg/kg, read-out: Concentration of bendamustine in rat plasma, Mean (SEM)
Experimental: Control: 2.5 mg/mL bendamustine hydrochloride, 4.25 mg/mL of mannitol in 0.9% NaCl; dose of 10 mg/kg
Inventive Composition: 2.5 mg/mL bendamustine hydrochloride, 40% w/w sodium sulfobutyl ether β-cyclodextrin, 3% protamine sulfate, 4.3 mg/g mannitol in water (produced according to the process described in Example 10); dose of 10 mg/kg.
Female Sprague-Dawley rats (250-350 g). The animals were kept three per cage with an air filter cover under light (12 h light/dark cycle, light on at 06 h00) and controlled temperature of 22° C.+/−1° C. All manipulations with the animals were performed under a sterilized laminar hood. The animals had ad libitum access to Purina mouse chow and water. The animals were fasted overnight and anesthetized, before dosing. Dosing and Sampling: Bendamustine composition and control were administered intravenously to rats in tail vein. After time intervals 5, 15, 30, 45 min, 1, 1.5, 2 and 3 hrs post-injection, the blood samples were collected. The rats were anesthetized by general inhalation of isoflurane. The blood samples were collected from the jugular vein with heparinized tube and kept on ice. Blood was immediately centrifuged, and plasma was separated. The plasma samples were immediately extracted. Sample Extraction and Analysis: The plasma samples 0.100 mL were transferred to plastic tubes. The samples were extracted with 0.400 mL of 100 mM HCl in acetonitrile while being shaken vigorously for 30 seconds. The samples were centrifuged at 10000 RPM for 5 minutes. The supernatant was separated. The samples were frozen in dry ice and kept at −80° C. until HPLC analysis. 20 microliter aliquots were injected into HPLC for analysis. The HPLC conditions: C18 reversed phase column 50×4.6 mm, Symmetry/Shield 3.5 micrometer Column temperature 30° C. Flow rate 1.5 mL/min Injection volume 20 microliters Fluorescence detection at wavelengths: excitation 327 nm, emission 420 nm Mobile phase: Buffer A: 5% acetonitrile 0.1% TFA Buffer B: 90% acetonitrile 0.1% TFA Run time: 10 min The improved pharmacokinetic profiles of Bendamustine for tested composition versus the control is shown in Table 3 below.

[2] = test system: Human breast carcinoma MDA-MB 231 s.c. solid tumors; test: Human breast carcinoma MDA-MB 231 s.c. solid tumors in nude mice (Example 29); type: in vivo, balb/c nu/nu mice; details: for Tumor weight after treatment, Average (SEM): 30 mg/kg days 1, 2, 9, 10
Experimental: balb/c mice aged 5 to 6 weeks were purchased from Charles River Canada Inc. The animals were kept 5 per cage with an air filter cover under light (12 light/dark cycle, light on at 6 H00) and temperature (22° C.±1° C.)-controlled environment. All manipulations of animals were performed under a sterilized laminar hood. The animals had ad libitum access to Purina mouse chow (Pro Lab PMH 4018, Trademark of Agway, Syracuse, N.Y.) and water. These animal studies were conducted according to the “Guidelines for Care and Use of Experimental Animals”. Tumor Cell Culture: Human breast cancer cells MDA-MB 231 were cultured in the appropriated culture medium. The cells were harvested in their logarithmic growth phase for the preparation of tumor implantation. Tumor Implantation: Human tumor or myeloma cells (2.5 to 5.0×10^6 cells) were implanted subcutaneously in 0.200 mL of medium containing 30% Matrigel on the two flanks of balb/c nu/nu mice through a 1 to 2 cm long 20-gauge needle. Treatments: 2 to 3 weeks after tumor cell implantation, animals that developed s.c. solid tumors were selected and divided into several homogeneous groups (n=5 animals per group or dose) with respect to tumor size (0.5 to 0.8 cm in diameter). The treatments were performed next day. The animals were dosed with the following dosing solutions. Control: (0.9%, NaCl) Compositions:
Subcutaneous solid tumor measurements were performed on the day of first injection and at 3- to 4-day intervals thereafter. The two largest perpendicular diameters of each tumor were measured with calipers and tumor sizes were estimated using the formula: TV=L×W/2 where TV: tumor volume; L: length; W: width. The body weights of animals were also noted.
The experiment was performed employing the procedures described in Example 28, using the following compositions for treatment:
non-formulated Bendamustine, (30 mg/kg)
Bendamustine (30 mg/kg) in 20% SBECD, 1% LMWP (formulated BM)
The treatment was performed on days 1, 2, 9, and 10.

Cn1c(CCCC(=O)O)nc2cc(N(CCCl)CCCl)ccc21 [BM, 4-[5-[bis(2-chloroethyl)amino]-1-methylbenzimidazol-2-yl]butanoic acid]
concentration at 0.08 h ([1]; 0.08 h post injection): 6040 ng/mL
concentration at 0.25 h ([1]; 0.25 h post injection): 2430 ng/mL
concentration at 0.5 h ([1]; 0.5 h post injection): 520 ng/mL
concentration at 0.75 h ([1]; 0.75 h post injection): 145 ng/mL
concentration at 1 h ([1]; 1 h post injection): 48 ng/mL
concentration at 1.5 h ([1]; 1.5 h post injection): 8 ng/mL
concentration at 2 h ([1]; 2 h post injection): 2 ng/mL
concentration at 3 h ([1]; 3 h post injection): 0 ng/mL
Tumor weight after treatment, Average (SEM) ([2]; day 0): 0.139 (0.013) g
Tumor weight after treatment, Average (SEM) ([2]; day 2): 0.178 (0.027) g
Tumor weight after treatment, Average (SEM) ([2]; day 4): 0.202 (0.039) g
Tumor weight after treatment, Average (SEM) ([2]; day 6): 0.259 (0.049) g
Tumor weight after treatment, Average (SEM) ([2]; day 8): 0.295 (0.054) g
Tumor weight after treatment, Average (SEM) ([2]; day 10): 0.319 (0.044) g
Tumor weight after treatment, Average (SEM) ([2]; day 12): 0.361 (0.050) g
Tumor weight after treatment, Average (SEM) ([2]; day 14): 0.417 (0.054) g
Tumor weight after treatment, Average (SEM) ([2]; day 16): 0.487 (0.067) g
Inhibition % vs control (on day 16) ([2]; 30 mg/kg, Day 1, 2, 9, 10): 38.3%
Tumor weight on day 16 ([2]; 30 mg/kg, Day 1, 2, 9, 10, right flank tumors only): 0.487 ± 0.067 g
